Data published in US5607962A, “Substituted indole derivatives” (Bayer Aktiengesellschaft, priority 1995, dated 1997).

Tested on: smooth muscle cells
Test: Inhibition of the proliferation of smooth muscle cells (3H-thymidine incorporation)
Type: cell-based, pigs
Conditions: Sus scrofa; smooth muscle cells from pig aortas; half-maximum inhibition of 3H-thymidine incorporation produced by 10% FCS
Experimental: Investigation of the inhibition of the proliferation of smooth muscle cells by the compounds according to the invention
To determine the antiproliferative action of the compounds, smooth muscle cells are used which have been obtained from the aortas of pigs by the media explant technique [R. Ross, J. Cell. Biol. 50, 172, 1971]. The cells are inoculated into suitable culture dishes, as a role 96-hole plates, and cultured at 37° C. for 2-3 days in medium 199 with 7.5% FCS and 7.5% NCS, 2 mM L-glutamine and 15 mM HEPES, pH 7.4 in 5% CO2. The cells are then synchronized by withdrawal of serum for 2-3 days and then stimulated to growth using serum or other factors. At the same time, test compounds are added. […] To determine the IC50 values, the active compound concentration is calculated at which sequential dilution of the active compound causes half-maximum inhibition of the thymidine incorporation produced by 10% FCS.

NC(=O)C(NC(=O)[C@@H]1CCCC[C@H]1c1ccc(Cc2c(-c3ccccc3)[nH]c3ccccc23)cc1)c1ccccc1 (stereo partly drawn) [Example 3, trans-2-[4-(2-Phenylindol-3-yl-methyl)phenyl]-cyclohexane-1-carbonyl(phenylglycinamido)amide]
IC50: 0.02 nM
